In publication PMC6718988, “Bioactivity and Bactericidal Mechanism of Histidine-Rich β-Hairpin Peptide Against Gram-Negative Bacteria” (International Journal of Molecular Sciences, 2019):
Values after ≈ are worked out from the molar mass of the structure shown. Where a SMILES comes first, the peptide text is derived from it. [ ]: non-standard residue; d: D form.

How the values were obtained:
E. coli K99 = experiment: microbe, parasite or virus in culture; conditions: E. coli K99; MHB, about 1 × 10^5 CFU/mL, 37 °C, 24 h; three independent experiments
Description: (§1) The minimum inhibitory concentration (MIC) was measured using a broth microdilution method to determine the in vitro antimicrobial activity of the peptides. Bacteria were inoculated into MHB and incubated overnight at 37 °C until the bacteria were in log phase growth. Next, we corrected the bacterial concentration to approximately 1 × 10^5 CFU/mL using MHB. The peptides were added to 96-well plates containing 0.01% acetic acid and 0.2% bovine serum albumin at final concentrations ranging from 0.25 to 128 μM. After incubation at 37 °C for 24 h, the absorbance was measured at 492 nm using a microplate reader (Tecan GENios F129004, Tecan, Austria). Broth containing microbes and […] were used as positive and negative controls, respectively. The lowest peptide concentration with no increase in absorbance compared to that of the negative control was defined as the MIC. The experiments were independently performed three times.

E. coli ATCC25922 [1] = experiment: Membrane depolarization (diSC3-5); format: cell-based; conditions: E. coli ATCC25922, 0.5, 1 and 2×MIC
Description: The effects of the antimicrobial peptides on the plasma membrane potential were determined used cell membrane potential-sensitive fluorescent dye diSC3-5. Briefly, E. coli ATCC25922 cells were incubated in MHB to mid-log phase at 37 °C, rinsed 3 times with HEPES buffer, adjusted to an OD600 of 0.05. Next, KCl was used to adjust the final concentration to 0.4 μM and diSC3-5 was added. The mixture was incubated for 30 min at 37 °C. The antibacterial peptides at concentrations of 0.5, 1 and 2×MIC were then added to a cuvette containing 2 mL of bacterial solution, and the fluorescence change was recorded from 0 to 600 s with an F-4500 fluorescence spectrophotometer (Hitachi, Tokyo, Japan) (excitation λ = 622 nm, emission λ = 670 nm). Bacteria without antimicrobial peptides were used to determine the background fluorescence.

[2] = RP-HPLC retention time as measure of hydrophobicity; format: physicochemical; conditions: analytical Kromasil C18 column 4.6 mm × 250 mm, 5.0 μm, acetonitrile, flow 1.0 mL/min, used as measure of hydrophobicity
Description: The hydrophobicities of the peptides in solution were reliably mirrored by their high-performance liquid chromatography (HPLC)retention times. The retention times for peptide HI2, HW2, HV2, HF2, and PG-1 were 11.13, 10.55, 12.20, 18.06 and 12.56 min, respectively, indicating the following hydrophobic order: HF2 > PG-1 > HV2 > HI2 > HW2(Table 1).
The designed peptides were synthesized and purified by GL Biochem (Shanghai, China). Acetonitrile was used on an analytical Kromasil C18 column (4.6 mm × 250 mm, 5.0 μm, LC 3000, Beijing, China), and the purity of the peptides was determined to be greater than 95% via reversed-phase high-performance liquid chromatography (RP-HPLC) with a flow rate of 1.0 mL/min. The experimental molecular weights of the peptides were evaluated via ESI-MS analysis, and these values were very close to the calculated masses. Next, the peptides were dissolved in deionized water at a concentration of 2.56 mM, and the peptide solutions were stored at −20 °C.

E. coli ATCC25922 [3] = experiment: Salt sensitivity assay (MIC in presence of physiological salts); format: cell-based; parameters: unit not given here
Description: Bacteria were inoculated into MHB and incubated overnight at 37 °C until the bacteria were in log phase growth. Next, we corrected the bacterial concentration to approximately 1 × 10^5 CFU/mL using MHB. […] After incubation at 37 °C for 24 h, the absorbance was measured at 492 nm using a microplate reader (Tecan GENios F129004, Tecan, Austria). Broth containing microbes and […] were used as positive and negative controls, respectively. The lowest peptide concentration with no increase in absorbance compared to that of the negative control was defined as the MIC. The experiments were independently performed three times. The effects of salt ions on the antibacterial activities of the antimicrobial peptides were evaluated. Different salt ion concentrations were added to BSA peptide dilutions, and the next steps followed the MIC measurement method. […] These tests were independently repeated three times.

[4] = system: Gram-positive and Gram-negative bacteria; conditions: 24 h
Description: as §1

Gram-positive bacteria = conditions: 24 h
Description: as §1

Gram-negative bacteria = experiment: MICs against Gram-negative strains (geometric mean, range); format: cell-based
Description: as §1

[5] = system: TNF-α production in RAW264.7 cells; experiment: Inhibition of endotoxin-induced inflammation (LPS-stimulated TNF-α production); format: cell-based, murine; conditions: 32 μM peptide, 100 ng/mL LPS, 18 h, 37 °C, ELISA
Description: TNF-α production by the RAW264.7 cells was stimulated with LPS to evaluate the LPS neutralization characteristics of the peptides. Briefly, (1.0–2.0) × 10^5 RAW264.7 cells were plated in 96-well plates and stimulated with LPS (100 ng/mL) for 18 h at 37 °C in the absence or presence of peptides (2–64 μM). The negative and positive controls were untreated cells and cells treated with LPS alone. The supernatant was used to evaluate the endotoxin neutralizing ability of the antimicrobial peptides by analyzing the TNF-α production using […] ELISA (Boster, Wuhan, China).

[6] = LPS binding assay (BODIPY-TR-cadaverine displacement); parameters: species or system E. coli; conditions: peptide concentration higher than 4 μM; 50 μg/mL LPS, 5 μg/mL BODIPY-TR cadaverine, Tris 50 mM pH 7.4; 100% = 10 μg/mL polymyxin B
Description: The abilities of the antimicrobial peptides to bind LPS were determined using the fluorescent dye BODIPY-TR-cadaverine (BC) substitution method. LPS (50 μg/mL) from E. coli O111:B4 was incubated with BC (5 μg/mL) in Tris buffer (50 mm, pH 7.4) for 4 h. Next, 50 μL of various concentrations of peptides (final concentration of 1–64 μM) and 50 μL of LPS-BC mixture were added to 96-well plates, and the fluorescence was measured using a fluorescence spectrophotometer (Infinite 200 pro, Tecan, China) at an excitation wavelength of 580 nm and an emission wavelength of 620 nm. Each test was performed three times. The values were converted to %∆F (AU) using the following equation:%ΔF (AU) = [(Fobs − F0)/(F100 − F0)] × 100 where Fobs is the fluorescence value measured in the presence of the peptide, F0 is the initial fluorescence of LPS with BC without the addition of peptides, F100 is the fluorescence value produced by adding 10 μg/mL polymyxin B.

With `CC(C)[C@H](NC(=O)CNC(=O)[C@H]1CCCN1C(=O)[C@@H](NC(=O)[C@H](Cc1c[nH]cn1)NC(=O)[C@@H](NC(=O)[C@H](Cc1c[nH]cn1)NC(=O)[C@@H](NC(=O)[C@H](CCCNC(=N)N)NC(=O)[C@@H](N)CCCNC(=N)N)C(C)C)C(C)C)C(C)C)C(=O)N[C@@H](Cc1c[nH]cn1)C(=O)N[C@H](C(=O)N[C@@H](Cc1c[nH]cn1)C(=O)N[C@H](C(=O)N[C@@H](CCCNC(=N)N)C(=O)N[C@@H](CCCNC(=N)N)C(N)=O)C(C)C)C(C)C` [HV2] (H-RRVHVHV[dP]GVHVHVRR-NH2; N-terminus assumed) the MIC (E. coli K99) was 8 µM (≈ 15.5 µg/mL), the “plasma membrane depolarization (diSC3-5 release)” value (E. coli ATCC25922 [1]) was “more rapid and stronger plasma membrane depolarization relative to PG-1” and the “Retention Time” value [2] was 12.20 min. For the same compound, the “MIC, FeCl3” value (E. coli ATCC25922 [3]; E. coli ATCC25922, 4 μM FeCl3, unit not given) was 4, the “MIC, NH4Cl” value (E. coli ATCC25922 [3]; E. coli ATCC25922, 6 μM NH4Cl, unit not given) was 4 and the “MIC, ZnCl2” value (E. coli ATCC25922 [3]; E. coli ATCC25922, 8 μM ZnCl2, unit not given) was 1. For the same compound, the “MIC, MgCl2” value (E. coli ATCC25922 [3]; E. coli ATCC25922, 1 mM MgCl2, unit not given) was 8, the “MIC, KCl” value (E. coli ATCC25922 [3]; E. coli ATCC25922, 4.5 mM KCl, unit not given) was 4 and the “MIC, NaCl” value (E. coli ATCC25922 [3]; E. coli ATCC25922, 150 mM NaCl, unit not given) was 4. The “MIC, Control” value (E. coli ATCC25922 [3]; E. coli ATCC25922, absence of physiological salts, no unit printed in Table 3 (Table 2 MIC in μM)) was 8, the “MBC (GM), geometric mean of MICs, Gram (+,−)” value [4] was 23.52 µM and the “MBC (GM), geometric mean of MICs, Gram (+)” value (Gram-positive bacteria) was 256 µM. The “MBC (GM), geometric mean of MICs, Gram (−)” value (Gram-negative bacteria; Gram-negative strains, 256 μM used where no activity at 128 μM) was 7.13 µM, the “MIC against Gram-negative bacteria” value (Gram-negative bacteria; range over the Gram-negative strains of Table 2) was 4 to 8 µM and the “neutralizing activity against LPS (TNF-α level)” value [5] was about 100%. For the same compound, the “LPS binding ability relative to binding activity of polymyxin B” value [6] was “higher than 60%”.
